Each molecule was assayed on human PGHS-2 protein expression (assay: Prostoglandin endoperoxide synthase-2 (PGHS-2) protein expression in LPS stimulated human monocytes). Details: rank order potency similar to that for inhibiting cytokine production.
Type: cell-based
Description: The following assay describes a method for determining the inhibitory effects of compounds of Formula (I) on human PGHS-2 protein expression in LPS stimulated human monocytes
Human peripheral blood monocytes were isolated from buffy coats by centrifugation through Ficoll and Percoll gradients. Cells were seeded at 2×10^6 /well in 24 well plates and allowed to adhere for 1 hour in RPMI supplemented with 1% human AB serum, 20 mM L-glutamine, Penicillin-Streptomycin and 10 mM HEPES. Compounds were added at various concentrations and incubated at 37° C. for 10 minutes. LPS was added at 50 ng/well (to induce enzyme expression) and incubated overnight at 37° C. The supernatant was removed and cells washed once in cold PBS. The cells were lysed in 100 μl of cold lysis buffer(50 mM Tris/HCl pH 7.5, 150 mM NaCl, 1% NP40, 0.5% sodium deoxycholate, 0.1% SDS, […] DNAse, 0.1% TRITON X-100, 1 mM PMSF, 1 mM leupeptin, 1 mM pepstatin). The lysate was centrifuged (10,000×g for 10 min. at 4° C.) to remove debris and the soluble fraction was subjected to SDS PAGE. analysis (12% gel). Protein separated on the gel were transferred onto nitrocellulose membrane by electrophoretic means for 2 hours at 60 volts. The membrane was pretreated for one hour in PBS/0.1% Tween 20 with 5% non-fat dry milk. After washing 3 times in PBS/Tween buffer, the membrane was incubated with a 1:2000 dilution of a monospecific antiserum to PGHS-2 or a 1:1000 dilution of an antiserum to PGHs-1 in PBS/Tween with 1% BSA for one hour with continuous shaking. The membrane was washed 3X in PBS/Tween and then incubated with a 1:3000 dilution of horseradish peroxidase conjugated donkey antiserum to rabbit Ig (Amersham) in PBS/Tween with 1% BSA for one hour with continuous shaking. The membrane was then washed 3X in PBS/Tween and the ECL immunodetection system (Amersham) was used to detect the level of expression of prostaglandin endoperoxide synthases-2.

Structure (SMILES) | inhibited LPS induced PGHS-2 protein expression (active)
Fc1ccc(-c2nc3n(c2-c2ccncc2)CCS3)cc1 [6-(4-Fluorophenyl)-2,3-dihydro-5-(4-pyridinyl)imidazo[2,1-b]thiazole] | active
C[C@@H]1C[C@H]2[C@@H]3CCC4=CC(=O)C=C[C@]4(C)[C@@]3(F)[C@@H](O)C[C@]2(C)[C@@]1(O)C(=O)CO [Dexamethasone] | active
Fc1ccc(-c2ncn(CCCN3CCOCC3)c2-c2ccncc2)cc1 [Example 1, 1-[3-(4-Morpholinyl)propyl]-4-(4-fluorophenyl)-5-(4-pyridyl)imidazole] | active

Same assay, conditions: up to 10 uM

Structure (SMILES) | inhibition of LPS induced PGHS-2 protein expression (inactive)
C[S+]([O-])c1ccc(-c2nc3n(c2-c2ccncc2)CCC3)cc1 (stereo not shown) [2-(4-Methylsulfinylphenyl)-3-(4-pyridyl)-6,7-dihydro-(5H)-pyrrolo[1,2-a]imidazole] | inactive
CC(Cc1ccc(O)c(O)c1)C(C)Cc1ccc(O)c(O)c1 (stereo not shown) [NDGA] | inactive
O=C1CCN(c2ccccc2)N1 [phenidone] | inactive
COc1ccc(C2CNC(=O)C2)cc1OC1CCCC1 (stereo not shown) [rolipram] | inactive

Reference: patent publication US5593991A, “Imidazole compounds, use and process of making” (priority 1995, dated 1997)
